Values quoted from earlier work in US6486152B1, “Topical carbamazepine formulations and methods of use” (Taro Pharmaceutical Industries Ltd., priority 1997, dated 2002).

How the values were obtained:
psoriatic erythroderma = settings: HIV positive patient

mood (psoriatic erythroderma; systemic (ingested) carbamazepine): affected | solubility in acetone (acetone): soluble | solubility in alcohols (alcohols): soluble | solubility in propylene glycol (propylene glycol): soluble | solubility in water (water): practically insoluble
SMILES: NC(=O)N1c2ccccc2C=Cc2ccccc21 [Carbamazepine, 5-carbamoyl-5H-dibenz[b,f]azepine]
psoriatic erythroderma condition during first intake (psoriatic erythroderma; accidentally ingested 200-400 mg/day for two weeks): exhibited improvement | psoriatic erythroderma condition after stopping the medication (psoriatic erythroderma; after they stopped taking the medication): flared up again | psoriatic erythroderma condition on second intake (psoriatic erythroderma; intentionally took the medication a second time): improved once again
